Measured values as given in ChEMBL document CHEMBL4334471, “Discovery of 1,8-disubstituted-[1,2,3]triazolo[4,5-c]quinoline derivatives as a new class of Hippo signaling pathway inhibitors” (Bioorg Med Chem Lett, 2019).

How the values were obtained:
[1] = target: Ephrin type-A receptor 3 (Homo sapiens) (UniProt P29320); test: Inhibition of recombinant human EphA3 (578 to end residues) assessed as residual activity at 10 uM using poly(Glu, Tyr) 4:1 as substrate at 40 mins in presence of [gamma-33ATP] by scintillation counting based radiometry assay relative to control
[2] = target: Insulin receptor-related protein (Homo sapiens) (UniProt P14616); test: Inhibition of human IRR (943 to 1266 residues) assessed as residual activity at 10 uM using myelin basic protein as substrate after 40 mins by [gamma-33ATP] radiometric assay relative to control
[3] = target: Serine-protein kinase ATM (Homo sapiens) (UniProt Q13315); test: Inhibition of recombinant full-length human ATM assessed as residual activity at 10 uM using GST-cMyc-p53 as substrate measured after 40 mins by ELISA relative to control
[4] = target: Serine/threonine-protein kinase Nek7 (Homo sapiens) (UniProt Q8TDX7); test: Inhibition of recombinant human NEK7 (2 to end residues) assessed as residual activity at 10 uM using FLAKSFGSPNRAYKK as substrate measured after 40 mins in presence of [gamma33P]ATP by scintillation counting based radiometry assay relative to control
[5] = target: Serine/threonine-protein kinase pim-3 (Homo sapiens) (UniProt Q86V86); test: Inhibition of recombinant human Pim3 (2 to end residues) assessed as residual activity at 10 uM using RSRHSSYPAG as substrate incubated for 40 mins in presence of [gamma33P]ATP by scintillation counting based radiometry assay relative to control
[6] = target: Mitogen-activated protein kinase kinase kinase kinase 3 (Homo sapiens) (UniProt Q8IVH8); test: Inhibition of recombinant human MAP4K3 (1 to 291 residues) assessed as residual activity at 10 uM using RLGRDKYKTLRQI as substrate incubated for 40 mins in presence of [gamma-33ATP by scintillation counting based radiometry assay relative to control
[7] = target: Leucine-rich repeat serine/threonine-protein kinase 2 (Homo sapiens) (UniProt Q5S007); test: Inhibition of recombinant human LRRK2 (970 to end residues) assessed as residual activity at 10 uM using RLGRDKYKTLRQI as substrate after 40 mins in presence of [gamma-33ATP] by scintillation counting based radiometry assay relative to control
[8] = target: Protein kinase C gamma type (Homo sapiens) (UniProt P05129); test: Inhibition of recombinant full-length human PKCgamma assessed as residual activity at 10 uM using histone H1 as substrate incubated for 40 mins in presence of [gamma33P]ATP by scintillation counting based radiometry assay relative to control
[9] = target: Tyrosine-protein kinase Fer (Homo sapiens) (UniProt P16591); test: Inhibition of recombinant human FER (541 to end residues) assessed as residual activity at 10 uM using KKKSPGEYVNIEF as substrate at 40 mins in presence of [gamma-33ATP] by scintillation counting based radiometry assay relative to control
[10] = target: Calcium/calmodulin-dependent protein kinase type 1D (Homo sapiens) (UniProt Q8IU85); test: Inhibition of recombinant full length human CaMK1delta assessed as residual activity at 10 uM using […] incubated for 40 mins in presence of [gamma-33ATP] by scintillation counting based radiometry assay relative to control
[11] = target: Receptor-interacting serine/threonine-protein kinase 1 (Homo sapiens) (UniProt Q13546); test: Inhibition of recombinant human RIPK1 (8 to 322 residues) assessed as residual activity at 10 uM using myelin basic protein as substrate incubated for 40 mins in presence of [gamma33P]ATP by scintillation counting based radiometry assay relative to control
[12] = target: NT-3 growth factor receptor (Homo sapiens) (UniProt Q16288); test: Inhibition of recombinant human TRKC (510 to end residues) assessed as residual activity at 10 uM using GEEPLYWSFPAKK as substrate incubated for 40 mins in presence of [gamma33P]ATP by scintillation counting based radiometry assay relative to control
[13] = target: Serine/threonine-protein kinase PLK1 (Homo sapiens) (UniProt P53350); test: Inhibition of recombinant full-length human Plk1 assessed as residual activity at 10 uM using casein as substrate incubated for 40 mins in presence of [gamma33P]ATP by scintillation counting based radiometry assay relative to control
[14] = target: Ephrin type-B receptor 1 (Homo sapiens) (UniProt P54762); test: Inhibition of recombinant human EphB1 (564 to end residues) assessed as residual activity at 10 uM using KVEKIGEGTYGVVYK as substrate at 40 mins in presence of [gamma-33ATP] by scintillation counting based radiometry assay relative to control
[15] = target: Protein-tyrosine kinase 6 (Homo sapiens) (UniProt Q13882); test: Inhibition of recombinant full length human BRK assessed as residual activity at 10 uM using poly(Glu, Tyr) 4:1 as substrate incubated for 40 mins in presence of [gamma-33ATP] by scintillation counting based radiometry assay relative to control
[16] = target: Receptor tyrosine-protein kinase erbB-4 (Homo sapiens) (UniProt Q15303); test: Inhibition of recombinant human ERBB4 (706 to 991 residues) assessed as residual activity at 10 uM using poly(Glu, Tyr) 4:1 as substrate at 40 mins in presence of [gamma-33ATP] by scintillation counting based radiometry assay relative to control
[17] = target: Serine/threonine-protein kinase Sgk3 (Homo sapiens) (UniProt Q96BR1); test: Inhibition of recombinant human SGK3 (119 to end residues) assessed as residual activity at 10 uM using GRPRTSSFAEGKK as substrate incubated for 40 mins in presence of [gamma33P]ATP by scintillation counting based radiometry assay relative to control
[18] = target: Serine/threonine-protein kinase MRCK gamma (Homo sapiens) (UniProt Q6DT37); test: Inhibition of recombinant human MRCKgamma assessed as residual activity at 10 uM using KKRNRTLTV as substrate incubated for 40 mins in presence of [gamma-33ATP by scintillation counting based radiometry assay relative to control
[19] = system: Eukaryotic elongation factor 2 kinase (Homo sapiens), O00418 [H23R]; test: Inhibition of recombinant human eEF-2K H23R mutant (2 to end residues) assessed as residual activity at 10 uM using RKKFGESEKTKTK as substrate at 40 mins in presence of [gamma-33ATP] by scintillation counting based radiometry assay relative to control
[20] = target: CDK9/cyclin T1 (Homo sapiens) (UniProt O60563+P50750); test: Inhibition of recombinant full length human CDK9/cyclinT1 assessed as residual activity at 10 uM using KTFCGTPEYLAPE as substrate incubated for 40 mins in presence of [gamma-33ATP] by scintillation counting based radiometry assay relative to control; format: protein-complex assay
[21] = target: ALK tyrosine kinase receptor (Homo sapiens) (UniProt Q9UM73); test: Inhibition of human ALK (1058 to end residues) assessed as residual activity at 10 uM using KKKSPGEYVNIEFG as substrate incubated for 40 mins in presence of [gamma-33ATP] by scintillation counting based radiometry assay relative to control

Chain of Serine-protein kinase ATM (Homo sapiens) (Q13315 whole entry): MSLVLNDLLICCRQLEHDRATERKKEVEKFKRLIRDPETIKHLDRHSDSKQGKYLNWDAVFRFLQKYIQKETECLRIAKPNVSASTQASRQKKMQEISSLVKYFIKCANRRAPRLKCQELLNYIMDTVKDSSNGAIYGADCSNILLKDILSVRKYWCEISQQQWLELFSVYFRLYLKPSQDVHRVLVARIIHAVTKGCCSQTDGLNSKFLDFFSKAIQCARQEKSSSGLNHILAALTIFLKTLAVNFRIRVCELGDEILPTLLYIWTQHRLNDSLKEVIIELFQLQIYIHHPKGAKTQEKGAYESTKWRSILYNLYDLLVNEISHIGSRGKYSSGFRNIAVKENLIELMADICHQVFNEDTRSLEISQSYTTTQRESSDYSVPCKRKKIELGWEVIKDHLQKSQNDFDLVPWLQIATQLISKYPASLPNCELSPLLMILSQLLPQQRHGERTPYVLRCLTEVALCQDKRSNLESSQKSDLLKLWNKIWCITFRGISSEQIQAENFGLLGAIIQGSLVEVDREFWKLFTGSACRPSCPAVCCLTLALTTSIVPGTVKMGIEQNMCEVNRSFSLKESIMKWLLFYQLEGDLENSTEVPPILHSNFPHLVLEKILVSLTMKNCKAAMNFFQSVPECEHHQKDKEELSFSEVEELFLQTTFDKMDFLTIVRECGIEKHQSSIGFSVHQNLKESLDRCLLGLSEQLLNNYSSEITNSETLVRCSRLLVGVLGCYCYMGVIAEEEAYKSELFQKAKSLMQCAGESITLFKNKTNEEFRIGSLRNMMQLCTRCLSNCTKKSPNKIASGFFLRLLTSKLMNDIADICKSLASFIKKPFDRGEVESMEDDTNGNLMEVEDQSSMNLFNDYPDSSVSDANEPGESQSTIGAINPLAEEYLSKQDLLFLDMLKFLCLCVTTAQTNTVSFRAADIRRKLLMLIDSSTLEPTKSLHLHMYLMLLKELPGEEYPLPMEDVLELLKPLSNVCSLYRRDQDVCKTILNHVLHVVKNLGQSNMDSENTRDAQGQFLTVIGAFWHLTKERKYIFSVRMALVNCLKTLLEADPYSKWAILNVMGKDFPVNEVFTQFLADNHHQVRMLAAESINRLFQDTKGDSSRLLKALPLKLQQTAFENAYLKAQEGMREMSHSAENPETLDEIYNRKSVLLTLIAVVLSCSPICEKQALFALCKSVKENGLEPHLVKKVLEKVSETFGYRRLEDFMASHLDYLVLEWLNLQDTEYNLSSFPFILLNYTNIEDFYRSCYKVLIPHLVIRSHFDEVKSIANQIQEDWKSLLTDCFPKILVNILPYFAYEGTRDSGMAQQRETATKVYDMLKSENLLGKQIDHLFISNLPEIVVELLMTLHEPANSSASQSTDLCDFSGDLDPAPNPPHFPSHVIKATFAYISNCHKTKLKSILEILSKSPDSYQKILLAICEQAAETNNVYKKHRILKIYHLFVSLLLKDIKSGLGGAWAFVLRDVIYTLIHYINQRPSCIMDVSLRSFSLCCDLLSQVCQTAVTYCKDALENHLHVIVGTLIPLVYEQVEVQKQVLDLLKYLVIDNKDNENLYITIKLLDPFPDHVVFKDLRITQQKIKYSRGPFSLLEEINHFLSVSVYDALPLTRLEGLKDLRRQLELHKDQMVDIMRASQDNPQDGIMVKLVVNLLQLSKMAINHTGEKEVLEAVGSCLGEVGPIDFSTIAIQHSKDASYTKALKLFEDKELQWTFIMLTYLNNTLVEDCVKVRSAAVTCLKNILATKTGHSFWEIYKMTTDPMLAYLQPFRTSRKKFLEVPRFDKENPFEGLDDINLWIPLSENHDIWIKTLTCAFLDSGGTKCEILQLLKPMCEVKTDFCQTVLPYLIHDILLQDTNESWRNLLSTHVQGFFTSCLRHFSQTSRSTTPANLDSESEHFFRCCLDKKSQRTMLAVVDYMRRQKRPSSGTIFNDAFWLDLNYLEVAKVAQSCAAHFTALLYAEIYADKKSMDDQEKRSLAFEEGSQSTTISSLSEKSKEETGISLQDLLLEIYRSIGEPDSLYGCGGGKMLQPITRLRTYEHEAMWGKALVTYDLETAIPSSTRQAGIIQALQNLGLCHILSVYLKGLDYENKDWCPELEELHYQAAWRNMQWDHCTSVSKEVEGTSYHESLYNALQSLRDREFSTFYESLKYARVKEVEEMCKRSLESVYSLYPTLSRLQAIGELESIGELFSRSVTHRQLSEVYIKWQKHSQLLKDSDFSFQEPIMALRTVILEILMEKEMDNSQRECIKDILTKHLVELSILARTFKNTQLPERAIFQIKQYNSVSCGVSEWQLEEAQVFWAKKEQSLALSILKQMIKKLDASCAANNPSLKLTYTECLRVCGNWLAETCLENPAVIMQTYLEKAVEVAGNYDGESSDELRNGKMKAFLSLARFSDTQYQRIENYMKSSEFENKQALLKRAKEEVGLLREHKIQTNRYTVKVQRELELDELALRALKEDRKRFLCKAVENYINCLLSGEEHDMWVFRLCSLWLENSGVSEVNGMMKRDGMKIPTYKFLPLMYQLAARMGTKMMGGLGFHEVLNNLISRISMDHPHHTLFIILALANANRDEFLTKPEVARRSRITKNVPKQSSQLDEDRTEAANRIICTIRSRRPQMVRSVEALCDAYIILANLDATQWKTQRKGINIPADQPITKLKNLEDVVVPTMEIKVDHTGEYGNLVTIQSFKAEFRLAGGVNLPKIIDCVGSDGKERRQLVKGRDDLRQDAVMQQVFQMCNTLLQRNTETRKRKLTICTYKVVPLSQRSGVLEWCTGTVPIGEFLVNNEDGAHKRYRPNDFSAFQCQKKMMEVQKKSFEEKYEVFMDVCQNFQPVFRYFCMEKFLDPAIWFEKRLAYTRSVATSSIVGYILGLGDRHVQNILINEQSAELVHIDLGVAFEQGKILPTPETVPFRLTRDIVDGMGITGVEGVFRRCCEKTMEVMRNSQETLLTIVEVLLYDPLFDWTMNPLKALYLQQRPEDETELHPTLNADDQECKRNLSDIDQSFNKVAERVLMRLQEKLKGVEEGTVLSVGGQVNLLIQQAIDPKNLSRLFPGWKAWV
Chain of Eukaryotic elongation factor 2 kinase (Homo sapiens), O00418 [H23R] (O00418 whole entry H23R): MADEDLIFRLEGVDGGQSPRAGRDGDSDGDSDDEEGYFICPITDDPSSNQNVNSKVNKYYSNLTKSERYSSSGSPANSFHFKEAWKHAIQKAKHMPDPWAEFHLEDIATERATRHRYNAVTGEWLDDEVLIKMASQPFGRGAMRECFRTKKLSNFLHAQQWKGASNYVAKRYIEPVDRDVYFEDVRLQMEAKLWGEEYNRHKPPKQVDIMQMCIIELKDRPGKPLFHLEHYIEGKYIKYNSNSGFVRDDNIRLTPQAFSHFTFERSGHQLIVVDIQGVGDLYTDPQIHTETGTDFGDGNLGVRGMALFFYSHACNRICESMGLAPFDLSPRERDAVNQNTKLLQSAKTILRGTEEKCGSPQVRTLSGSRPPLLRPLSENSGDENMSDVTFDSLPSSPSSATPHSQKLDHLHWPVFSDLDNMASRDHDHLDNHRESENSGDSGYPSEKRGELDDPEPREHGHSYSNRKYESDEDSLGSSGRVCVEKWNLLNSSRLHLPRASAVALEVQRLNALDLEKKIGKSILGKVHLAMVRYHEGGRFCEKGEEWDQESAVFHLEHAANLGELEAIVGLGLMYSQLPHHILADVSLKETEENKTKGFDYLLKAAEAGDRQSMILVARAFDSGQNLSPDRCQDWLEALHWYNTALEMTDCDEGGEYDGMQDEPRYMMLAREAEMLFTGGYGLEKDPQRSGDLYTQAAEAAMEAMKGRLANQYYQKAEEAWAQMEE
Chain of Ephrin type-B receptor 1 (Homo sapiens) (P54762 whole entry): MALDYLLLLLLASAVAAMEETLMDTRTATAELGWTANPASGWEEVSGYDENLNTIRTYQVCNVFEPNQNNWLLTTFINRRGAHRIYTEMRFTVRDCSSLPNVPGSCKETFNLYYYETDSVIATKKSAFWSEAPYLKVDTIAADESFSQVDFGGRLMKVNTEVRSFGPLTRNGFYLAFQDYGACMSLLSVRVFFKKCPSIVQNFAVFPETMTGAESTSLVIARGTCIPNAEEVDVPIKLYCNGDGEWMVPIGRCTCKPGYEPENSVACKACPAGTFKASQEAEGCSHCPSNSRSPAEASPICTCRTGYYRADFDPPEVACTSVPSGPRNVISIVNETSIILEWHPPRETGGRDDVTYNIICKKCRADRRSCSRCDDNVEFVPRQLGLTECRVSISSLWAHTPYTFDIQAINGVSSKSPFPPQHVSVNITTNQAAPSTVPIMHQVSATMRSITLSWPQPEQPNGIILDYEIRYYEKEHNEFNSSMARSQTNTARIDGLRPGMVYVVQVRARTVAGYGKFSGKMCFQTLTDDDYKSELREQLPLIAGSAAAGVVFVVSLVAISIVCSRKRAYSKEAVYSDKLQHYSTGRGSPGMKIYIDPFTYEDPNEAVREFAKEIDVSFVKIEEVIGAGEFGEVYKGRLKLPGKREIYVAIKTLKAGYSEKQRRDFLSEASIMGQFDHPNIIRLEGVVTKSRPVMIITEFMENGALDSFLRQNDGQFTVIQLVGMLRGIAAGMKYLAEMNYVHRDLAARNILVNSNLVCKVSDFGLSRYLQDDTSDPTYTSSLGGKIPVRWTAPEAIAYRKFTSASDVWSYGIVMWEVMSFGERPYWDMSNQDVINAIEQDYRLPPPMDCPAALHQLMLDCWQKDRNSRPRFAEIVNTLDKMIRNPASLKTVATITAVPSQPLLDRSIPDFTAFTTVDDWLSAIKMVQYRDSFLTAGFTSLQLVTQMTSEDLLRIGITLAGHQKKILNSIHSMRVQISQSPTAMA

C[C@@H](c1ccccc1)n1nnc2cnc3ccc(-c4cnc5[nH]ccc5c4)cc3c21
Activity [1]: 80%
Activity [2]: 86%
Activity [3]: 0%
Activity [4]: 119%
Activity [5]: 83%
Activity [6]: 73%
Activity [7]: 11%
Activity [8]: 83%
Activity [9]: 83%
Activity [10]: 43%
Activity [11]: 98%
Activity [12]: 2%
Activity [13]: 105%
Activity [14]: 152%
Activity [15]: 21%
Activity [16]: 73%
Activity [17]: 80%
Activity [18]: 67%
Activity [19]: 129%
Activity [20]: 80%
Activity [21]: 28%
